Reference: patent publication US20090137565A1, “Method for treatment of movement disorders” (The Trustees of Columbia University in the City of New York, priority 2004, published 2009)

Experiments:
[1] = test system: severe posthypoxic myoclonus
Description: After obtaining verbal consent from the patient and their spouse, they were given approximately six ounces of wine to drink (alcohol content 14% by volume). […] They were videotaped before and after the trial with alcohol.

[2] = test system: severe posthypoxic myoclonus; experiment: Earlier trials of anti-myoclonic medications in the Example 1 patient (case history); details: for reason for intolerance / adverse effect: human, in vivo
Description: The patient was referred to the Columbia University Medical Center Movement Disorder Center for evaluation of severe posthypoxic myoclonus at the age of 37. […] Back-averaged EEGs and somatosensory evoked potentials were not available.

[3] = approximately six ounces of wine
[4] = Example 1 patient, before the trial

SMILES	outcome of trials of anti-myoclonic medications [2, 4]	reason for intolerance / adverse effect [2]	also measured
CCO [alcohol]			duration of anti-myoclonic effect [1, 3]: resolved in several hours; effect on myoclonus [1, 3]: dramatic improvement in myoclonus; time to improvement in myoclonus ([1]; approximately six ounces of wine (alcohol content 14% by volume)): ≤ 30 min
O=C1CN=C(c2ccccc2Cl)c2cc([N+](=O)[O-])ccc2N1 [clonazepam]	only minimally successful		dose-limiting side effect [2, 4]: dose-limiting sedation; effect on severity of myoclonus [2, 4]: partially improved
CC[C@@H](C(N)=O)N1CCCC1=O [levetiracetam]	only minimally successful		
CC1(C)O[C@@H]2[C@@H](CO[C@@]3(COS(N)(=O)=O)OC(C)(C)O[C@@H]23)O1 [topiramate]	only minimally successful		
CCCC(CCC)C(=O)O [valproic acid]	only minimally successful	drop in platelet count	
NS(=O)(=O)Cc1noc2ccccc12 [zonisamide]	only minimally successful	anorexia	
